Data: PubChem BioAssay (NCI)
Where “and” joins values, the source holds several entries; their conditions need not be identical. Equal entries are not always repeated.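 Assay format: 96-well plates, 48-hour exposure. At the GI50, growth is halved. At the TGI there is no net growth.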 *1 amine or outer side, *2 acyl side, *3 side chain or, on linkers, in order; H or OH if unused. Where a SMILES comes first, the peptide text is derived from it. Bridges are numbered along the chain shown (N, C = ends). Roman numbers before positions name the chains, in order. [ ]: non-standard residue; d: D form. Actinocin(9to1) = Cc1c2oc3c(C)ccc(C(=O)[*:1])c3nc-2c(C(=O)[*:2])c(N)c1=O; NMeV = CN[CH](C(=O)O)C(C)C; Sar = CNCC(=O)O

Columns and labels:
Assay in all cases: NCI anticancer screen, dose series, 48 h
KM12 colon = test system: KM12 colon
OVCAR-4 ovarian = test system: OVCAR-4 ovarian
OVCAR-5 ovarian = test system: OVCAR-5 ovarian
786-0 renal = test system: 786-0 renal
RPMI-8226 leukemia = test system: RPMI-8226 leukemia
A549 NSCLC = test system: A549 NSCLC
EKVX NSCLC = test system: EKVX NSCLC
SK-MEL-2 melanoma = test system: SK-MEL-2 melanoma

Cc1cc(S(=O)(=O)Nc2nc3ncccc3[nH]2)c(S)cc1Cl
TGI (KM12 colon): > 100 µM
TGI (OVCAR-4 ovarian): > 100 µM
TGI (OVCAR-5 ovarian): > 100 µM
TGI (786-0 renal): > 100 µM
TGI (RPMI-8226 leukemia): > 100 µM
TGI (A549 NSCLC): > 100 µM
TGI (EKVX NSCLC): > 100 µM

NC(Cc1ccc(OCc2ccccc2)cc1)C(=O)NC(Cc1ccccc1)C(=O)Oc1c(Cl)c(Cl)c(Cl)c(Cl)c1Cl (stereo not drawn)
TGI (KM12 colon): 28.8 µM
TGI (OVCAR-4 ovarian): 35.5 µM
TGI (OVCAR-5 ovarian): 31.1 µM
TGI (SK-MEL-2 melanoma): 26.5 µM
TGI (RPMI-8226 leukemia): > 100 µM
TGI (A549 NSCLC): 37.5 µM
TGI (EKVX NSCLC): 41.6 µM

CN1CCN(Cc2c[nH]c3c2C(=O)c2c(c(O)c4ccccc4c2O)C3=O)CC1
GI50 (KM12 colon): 3.46 µM
TGI (KM12 colon): 15.2 µM
GI50 (OVCAR-4 ovarian): 21.3 µM
TGI (OVCAR-4 ovarian): 42.6 µM
GI50 (OVCAR-5 ovarian): 18.1 µM
TGI (OVCAR-5 ovarian): 33.6 µM
GI50 (RPMI-8226 leukemia): 3 µM
TGI (RPMI-8226 leukemia): 26.5 µM
GI50 (A549 NSCLC): 10.7 µM
TGI (A549 NSCLC): 25.4 µM
GI50 (EKVX NSCLC): 13.1 µM
TGI (EKVX NSCLC): 26.7 µM

COC(C/C(=C/CO[Si](C(C)C)(C(C)C)C(C)C)C(=O)N(COCC[Si](C)(C)C)c1ccccc1I)OC
TGI (KM12 colon): > 100 µM
TGI (OVCAR-4 ovarian): > 100 µM
TGI (OVCAR-5 ovarian): 87.2 µM
TGI (SK-MEL-2 melanoma): 29.9 µM
TGI (786-0 renal): > 100 µM
TGI (RPMI-8226 leukemia): > 100 µM
TGI (A549 NSCLC): > 100 µM

Cc1c2oc3c(C)ccc(C(=O)NC4C(=O)NC(Cc5ccccc5)C(=O)N5CCCC5C(=O)N(C)CC(=O)N(C)C(C(C)C)C(=O)OC4C)c3nc-2c(C(=O)NC2C(=O)NC(Cc3ccccc3)C(=O)N3CCCC3C(=O)N(C)CC(=O)N(C)C(C(C)C)C(=O)OC2C)c(N)c1=O (stereo not drawn) (I: TFP[Sar][NMeV] / II: TFP[Sar][NMeV]; ester I:1-I:C, II:1-II:C; linker I:N-II:N via Actinocin(9to1); configuration not given here)
TGI (KM12 colon): 1.05 µM
TGI (OVCAR-4 ovarian): 0.383 µM and 0.467 µM
TGI (OVCAR-5 ovarian): 0.0551 µM
TGI (RPMI-8226 leukemia): > 100 µM
TGI (A549 NSCLC): 0.0252 µM

N#Cc1nc2cc(Cl)ccc2nc1N1CCN(c2ccc([N+](=O)[O-])cc2)CC1
TGI (KM12 colon): > 100 µM
TGI (OVCAR-4 ovarian): > 100 µM
TGI (OVCAR-5 ovarian): > 100 µM
TGI (786-0 renal): > 100 µM
TGI (RPMI-8226 leukemia): > 100 µM
TGI (A549 NSCLC): > 100 µM
TGI (EKVX NSCLC): > 100 µM

CC(C)(C)OC(=O)[C@@H]1CCC(=O)N1C1(c2ccccc2)c2ccccc2-c2ccccc21
TGI (KM12 colon): > 100 µM
TGI (OVCAR-4 ovarian): > 100 µM
TGI (OVCAR-5 ovarian): > 100 µM
TGI (SK-MEL-2 melanoma): > 100 µM
TGI (786-0 renal): > 100 µM
TGI (A549 NSCLC): > 100 µM
TGI (EKVX NSCLC): > 100 µM

CSC(SC)=C(C#N)C(=O)Nc1cccc(Cl)c1
TGI (KM12 colon): > 100 µM
TGI (OVCAR-4 ovarian): > 100 µM
TGI (OVCAR-5 ovarian): > 100 µM
TGI (SK-MEL-2 melanoma): > 100 µM
TGI (786-0 renal): > 100 µM
TGI (A549 NSCLC): > 100 µM
TGI (EKVX NSCLC): > 100 µM

Nc1cc2c(c3ccccc13)C(CCl)CN2C(=O)c1cc2cc(NC(=O)Nc3ccc4[nH]c(C(=O)N5CC(CCl)c6c5cc(N)c5ccccc65)cc4c3)ccc2[nH]1 (stereo not drawn)
TGI (KM12 colon): 3.22 µM
TGI (OVCAR-4 ovarian): > 100 µM
TGI (OVCAR-5 ovarian): 4.22 µM
TGI (SK-MEL-2 melanoma): 2.17 µM
TGI (786-0 renal): 0.258 µM
TGI (RPMI-8226 leukemia): > 23.3 µM
TGI (EKVX NSCLC): 6.38 µM

CCC1(O)CC(OC2CC(N(C)C)C(OC3CC(O)C(OC4OC(C)C(=O)C=C4N)C(C)O3)C(C)O2)c2c(cc3c(c2O)C(=O)c2c(O)cccc2C3=O)C1C(=O)OC (stereo not drawn)
TGI (KM12 colon): 1.13 µM and 1.5 µM
GI50 (OVCAR-5 ovarian): 0.0152 µM
TGI (OVCAR-5 ovarian): 1.37 µM and 2.04 µM
TGI (SK-MEL-2 melanoma): 0.104 µM and 0.0118 µM
TGI (786-0 renal): 0.0971 µM
TGI (RPMI-8226 leukemia): 0.154 µM and 0.0597 µM
TGI (A549 NSCLC): 1.63 µM
GI50 (EKVX NSCLC): 0.0327 µM
TGI (EKVX NSCLC): 0.539 µM and 1.43 µM

Cc1cc2[nH]c3c(C#N)c(-c4ccccc4)c(N=Nc4ccc(F)cc4)c(=O)n3c2cc1C
TGI (OVCAR-4 ovarian): > 100 µM
TGI (OVCAR-5 ovarian): > 100 µM
TGI (SK-MEL-2 melanoma): > 100 µM
TGI (786-0 renal): > 100 µM
TGI (RPMI-8226 leukemia): > 100 µM
TGI (A549 NSCLC): > 100 µM
TGI (EKVX NSCLC): > 100 µM

CN(Cc1cnc2nc(N)nc(N)c2n1)c1ccc(C(=O)NC23CC4CC(CC(C4)C2)C3)cc1
TGI (KM12 colon): 24.8 µM
TGI (OVCAR-5 ovarian): 24.7 µM
TGI (SK-MEL-2 melanoma): 23.6 µM
TGI (786-0 renal): 57.1 µM
TGI (RPMI-8226 leukemia): 70.8 µM
TGI (EKVX NSCLC): 32.5 µM
